Test results published in US20110053916A1 (Vertex Pharmaceuticals Incorporated, priority 2009, published 2011).

The molecules below were run against T1, PknB (Mycobacterium tuberculosis, UniProt P9WI81) (assay: biochemical). Conditions: 3 nM PknB, 6 uM GarA, 3 μM ATP, 30 min; competitive tight-binding fit; several symbols in a cell = repeat determinations.
T1 construct: made in house
Design: species or system M. tuberculosis

T1 sequence (P9WI81 whole entry): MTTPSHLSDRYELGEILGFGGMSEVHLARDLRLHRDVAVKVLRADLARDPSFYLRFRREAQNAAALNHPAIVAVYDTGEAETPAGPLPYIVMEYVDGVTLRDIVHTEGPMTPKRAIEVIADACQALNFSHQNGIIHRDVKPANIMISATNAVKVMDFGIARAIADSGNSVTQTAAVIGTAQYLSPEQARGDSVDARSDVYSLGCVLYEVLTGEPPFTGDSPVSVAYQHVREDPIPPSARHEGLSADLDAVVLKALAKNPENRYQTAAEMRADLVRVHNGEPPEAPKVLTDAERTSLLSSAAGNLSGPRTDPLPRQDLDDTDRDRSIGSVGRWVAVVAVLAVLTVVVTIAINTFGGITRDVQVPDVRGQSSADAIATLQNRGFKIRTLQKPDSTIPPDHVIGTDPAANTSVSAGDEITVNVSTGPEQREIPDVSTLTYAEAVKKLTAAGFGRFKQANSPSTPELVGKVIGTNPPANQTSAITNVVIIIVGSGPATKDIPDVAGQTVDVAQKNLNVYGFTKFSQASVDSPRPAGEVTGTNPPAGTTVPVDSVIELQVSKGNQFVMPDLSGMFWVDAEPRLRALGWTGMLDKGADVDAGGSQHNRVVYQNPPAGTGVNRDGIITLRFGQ

In the case of `O=C(O)c1cccc(-c2ncc(Cl)c(Nc3cc(C4CC4)[nH]n3)n2)c1` [Compound 142, 3-[5-chloro-4-[(5-cyclopropyl-1H-pyrazol-3-yl)amino]-pyrimidin-2-yl]benzoic acid], the “Ki Values” is reported as “A*, A, B**, B**”.
`N#Cc1cc(Nc2cc(C3CC3)n[nH]2)nc(-c2ccc(S(N)(=O)=O)s2)n1` [Compound 295, 5-[4-cyano-6-[(5-cyclopropyl-2H-pyrazol-3-yl)amino]-pyrimidin-2-yl]thiophene-2-sulfonamide] was tested, and the “Ki Values” was “A**, B**”.
With `C#Cc1cnc(-c2ccc(S(=O)(=O)NC(=O)C(C)(C)C)s2)nc1Nc1cc(C2CC2)[nH]n1` [Compound 201, N-[[5-[4-[(5-cyclopropyl-1H-pyrazol-3-yl)amino]-5-ethynyl-pyrimidin-2-yl]-2-thienyl]sulfonyl]-2,2-dimethyl-propanamide] the “Ki Values” was “B*, B*, B”.
`COc1cnc(N2CCCCC2)nc1Nc1cc(C2CC2)[nH]n1` [Compound 68, N-(5-cyclopropyl-1H-pyrazol-3-yl)-5-methoxy-2-(1-piperidyl)pyrimidin-4-amine] was tested, and the “Ki Values” was “A, B**”.
For `NS(=O)(=O)c1ccc(-c2ncc(CCO)c(Nc3cc(C4CC4)[nH]n3)n2)s1` [Compound 239, 5-(4-(5-cyclopropyl-1H-pyrazol-3-ylamino)-5-(2-hydroxyethyl)pyrimidin-2-yl)thiophene-2-sulfonamide], the “Ki Values” was “A*, B**”.
In the case of `O=C(NC1CCCCC1)c1nccc(Nc2cc(C3CC3)n[nH]2)n1` [Compound 109, N-cyclohexyl-4-[(5-cyclopropyl-2H-pyrazol-3-yl)amino]pyrimidine-2-carboxamide], the “Ki Values” is reported as “B, B*”.
For `Cc1cnc(-c2cccs2)nc1Nc1cc(C2CC2)[nH]n1` [Compound 38, N-(5-cyclopropyl-1H-pyrazol-3-yl)-5-methyl-2-(thiophen-2-yl)pyrimidin-4-amine], the “Ki Values” was “A*, A”.
With `N#CCc1ccc(Nc2ncc(Cl)c(Nc3cc(C4CC4)[nH]n3)n2)cc1` [Compound 59, 2-[4-[[5-chloro-4-[(5-cyclopropyl-1H-pyrazol-3-yl)amino]-pyrimidin-2-yl]amino]phenyl]acetonitrile] the “Ki Values” was “B**, B*, B*”.

Same assay, conditions: 3 nM PknB, 6 uM GarA, 3 μM ATP, 30 min; competitive tight-binding fit; several symbols in a cell = repeat determinations; read-out: Ki Values

`NS(=O)(=O)c1ccc(-c2ncc(Cl)c(Nc3cc(-c4ccccc4)[nH]n3)n2)s1` [Compound 234, 5-[5-chloro-4-[(5-phenyl-1H-pyrazol-3-yl)amino]-pyrimidin-2-yl]thiophene-2-sulfonamide] and `NS(=O)(=O)c1ccc(-c2ncc(Cl)c(Nc3cc(-c4cccs4)[nH]n3)n2)s1` [Compound 220, 5-[5-chloro-4-[[5-(2-thienyl)-1H-pyrazol-3-yl]amino]-pyrimidin-2-yl]thiophene-2-sulfonamide] cannot be ordered by Ki: > 4000 nM for the first, > 4000 nM for the second.

First: C#Cc1cnc(N2CCCNCC2)nc1Nc1cc(C2CC2)n[nH]1 [Compound 174, N-(5-cyclopropyl-2H-pyrazol-3-yl)-2-(1,4-diazepan-1-yl)-5-ethynyl-pyrimidin-4-amine]
Second: C#Cc1cnc(N2CCCN(C(C)=O)CC2)nc1Nc1cc(C2CC2)n[nH]1 [Compound 258, 1-[4-[4-[(5-cyclopropyl-2H-pyrazol-3-yl)amino]-5-ethynyl-pyrimidin-2-yl]-1,4-diazepan-1-yl]ethanone]
The Ki of the first is higher: 2000 to 4000 nM for the first, 100 to 500 nM for the second. The second binds more tightly here.

`C#Cc1cnc(-c2ccc(C(O)C(=O)OCC)s2)nc1Nc1cc(C2CC2)[nH]n1` (stereo not shown) [Compound 233, ethyl 2-[5-[4-[(5-cyclopropyl-1H-pyrazol-3-yl)amino]-5-ethynyl-pyrimidin-2-yl]-2-thienyl]-2-hydroxy-acetate] and `C#Cc1cnc(-c2ccc(C(O)CCOC(C)=O)s2)nc1Nc1cc(C2CC2)[nH]n1` (stereo not shown) [Compound 243, 3-(5-(4-(5-cyclopropyl-1H-pyrazol-3-ylamino)-5-ethynylpyrimidin-2-yl)thiophen-2-yl)-3-hydroxypropyl acetate] fall in the same range of Ki: 10 to 50 nM for the first, 10 to 50 nM for the second.

Compared with `Nc1ccc(-c2ccc(S(N)(=O)=O)s2)nc1Nc1cc(C2CC2)n[nH]1` [Compound 276, 5-[5-amino-6-[(5-cyclopropyl-2H-pyrazol-3-yl)amino]-2-pyridyl]thiophene-2-sulfonamide], `CC(C)(C)NS(=O)(=O)c1ccc(-c2ccc([N+](=O)[O-])c(Nc3cc(C4CC4)n[nH]3)n2)s1` [Compound 274, 5-[6-[(5-cyclopropyl-2H-pyrazol-3-yl)amino]-5-nitro-2-pyridyl]-N-tert-butyl-thiophene-2-sulfonamide] is higher in Ki: 1 to 10 nM for the first, 50 to 100 nM for the second.

`COCc1cnc(N2CCCCC2)nc1Nc1cc(C2CC2)[nH]n1` [Compound 70, N-(5-cyclopropyl-1H-pyrazol-3-yl)-5-(methoxymethyl)-2-(1-piperidyl)pyrimidin-4-amine] and `CN1CCN(c2nccc(Nc3cc(C4CC4)[nH]n3)n2)CC1` [Compound 47, N-(5-cyclopropyl-1H-pyrazol-3-yl)-2-(4-methylpiperazin-1-yl)-pyrimidin-4-amine] cannot be ordered by Ki: > 4000 nM for the first, > 4000 nM for the second.

`C#Cc1cnc(-c2ccc(C(=O)C(=O)OCC)s2)nc1Nc1cc(C2CC2)[nH]n1` [Compound 202, ethyl 2-[5-[4-[(5-cyclopropyl-1H-pyrazol-3-yl)amino]-5-ethynyl-pyrimidin-2-yl]-2-thienyl]-2-oxo-acetate] and `C#Cc1cnc(-c2ccc(S(=O)(=O)CCCNC(C)=O)s2)nc1Nc1cc(C2CC2)[nH]n1` [Compound 229, N-(3-(5-(4-(5-cyclopropyl-1H-pyrazol-3-ylamino)-5-ethynylpyrimidin-2-yl)thiophen-2-ylsulfonyl)propyl)acetamide] fall in the same range of Ki: 10 to 50 nM for the first, 10 to 50 nM for the second.

First: C#Cc1cnc(N2CCN(C(C)=O)CC2)nc1Nc1cc(C2CC2)n[nH]1 [Compound 185, 1-[4-[4-[(5-cyclopropyl-2H-pyrazol-3-yl)amino]-5-ethynyl-pyrimidin-2-yl]piperazin-1-yl]ethanone]
Second: CS(=O)(=O)NCc1ccc(-c2ncc(Cl)c(Nc3cc(C4CC4)n[nH]3)n2)s1 [Compound 280, N-[[5-[5-chloro-4-[(5-cyclopropyl-2H-pyrazol-3-yl)amino]-pyrimidin-2-yl]-2-thienyl]methyl]methanesulfonamide]
The Ki of the first is higher: 500 to 1000 nM for the first, 10 to 50 nM for the second.

First: CC(C)(C)NS(=O)(=O)C/C=C/c1nccc(Nc2cc(C3CC3)[nH]n2)n1 [Compound 56, 3-[4-[(5-cyclopropyl-1H-pyrazol-3-yl)amino]pyrimidin-2-yl]-N-tert-butyl-prop-2-ene-1-sulfonamide]
Second: NS(=O)(=O)c1ccc(-c2ncc(/C=C/CO)c(Nc3cc(C4CC4)[nH]n3)n2)s1 [Compound 281, (E)-5-(4-(5-cyclopropyl-1H-pyrazol-3-ylamino)-5-(3-hydroxyprop-1-enyl)pyrimidin-2-yl)thiophene-2-sulfonamide]
The Ki of the first is higher: 1000 to 2000 nM for the first, 1 to 10 nM for the second. The second binds more tightly here.

`NS(=O)(=O)c1ccc(-c2ncc(Cl)c(Nc3cc(C4CC4)[nH]n3)n2)cn1` [Compound 299, 5-[5-chloro-4-[(5-cyclopropyl-1H-pyrazol-3-yl)amino]-pyrimidin-2-yl]pyridine-2-sulfonamide] and `NS(=O)(=O)c1cccc(-c2ncc(F)c(Nc3cc(C4CC4)[nH]n3)n2)c1` [Compound 35, 3-[4-[(5-cyclopropyl-1H-pyrazol-3-yl)amino]-5-fluoro-pyrimidin-2-yl]benzenesulfonamide] fall in the same range of Ki: 10 to 50 nM for the first, 10 to 50 nM for the second.

`CN(CCO)S(=O)(=O)c1cccc(-c2ncc(Cl)c(Nc3cc(C4CC4)[nH]n3)n2)c1` [Compound 134, 3-[5-chloro-4-[(5-cyclopropyl-1H-pyrazol-3-yl)amino]-pyrimidin-2-yl]-N-(2-hydroxyethyl)-N-methyl-benzenesulfonamide] and `CC(=O)NCCNS(=O)(=O)c1cccc(-c2ncc(Cl)c(Nc3cc(C4CC4)[nH]n3)n2)c1` [Compound 96, N-[2-[[3-[5-chloro-4-[(5-cyclopropyl-1H-pyrazol-3-yl)amino]-pyrimidin-2-yl]phenyl]sulfonylamino]ethyl]acetamide] fall in the same range of Ki: 10 to 50 nM for the first, 10 to 50 nM for the second.

Compared with `OC1CCCc2nc(-c3ncc(Cl)c(Nc4cc(C5CC5)[nH]n4)n3)sc21` (stereo not shown) [Compound 310, 2-[5-chloro-4-[(5-cyclopropyl-1H-pyrazol-3-yl)amino]-pyrimidin-2-yl]-4,5,6,7-tetrahydrobenzothiazol-7-ol], `N#Cc1ccc(-c2ncc(Br)c(Nc3cc(C4CC4)[nH]n3)n2)s1` [Compound 176, 5-[5-bromo-4-[(5-cyclopropyl-1H-pyrazol-3-yl)amino]-pyrimidin-2-yl]thiophene-2-carbonitrile] is lower in Ki: 100 to 500 nM for the first, 1 to 10 nM for the second.

`NS(=O)(=O)c1ccc(-c2ncc(F)c(Nc3cc(C4CC4)[nH]n3)n2)s1` [Compound 52, 5-(4-(5-cyclopropyl-1H-pyrazol-3-ylamino)-5-fluoropyrimidin-2-yl)thiophene-2-sulfonamide] and `NS(=O)(=O)c1ccc(-c2ncc(Br)c(Nc3cc(C4CC4)[nH]n3)n2)s1` [Compound 186, 5-[5-bromo-4-[(5-cyclopropyl-1H-pyrazol-3-yl)amino]-pyrimidin-2-yl]thiophene-2-sulfonamide] fall in the same range of Ki: 1 to 10 nM for the first, 1 to 10 nM for the second.

First: Cc1cnc(-c2ccc(S(N)(=O)=O)s2)nc1Nc1cc(C2CC2)n(C)n1 [Compound 150, 5-[4-[(5-cyclopropyl-1-methyl-pyrazol-3-yl)amino]-5-methyl-pyrimidin-2-yl]thiophene-2-sulfonamide]
Second: CN(C)c1cc(Nc2cc(C3CC3)n[nH]2)nc(-c2ccc(S(N)(=O)=O)s2)n1 [Compound 282, 5-[4-[(5-cyclopropyl-2H-pyrazol-3-yl)amino]-6-dimethylamino-pyrimidin-2-yl]thiophene-2-sulfonamide]
The Ki of the first is higher: > 4000 nM for the first, 2000 to 4000 nM for the second. The second binds more tightly here.

First: N#Cc1ccc(Nc2ncc(Cl)c(Nc3cc(C4CC4)[nH]n3)n2)cc1 [Compound 84, 4-[[5-chloro-4-[(5-cyclopropyl-1H-pyrazol-3-yl)amino]-pyrimidin-2-yl]amino]benzonitrile]
Second: CC(=O)n1nc(Nc2nc(-c3ccccc3)ncc2N)cc1C1CC1 [Compound 4, 1-[3-[(5-amino-2-phenyl-pyrimidin-4-yl)amino]-5-cyclopropyl-pyrazol-1-yl]ethanone]
The Ki of the first is lower: 10 to 50 nM for the first, 100 to 500 nM for the second. The first binds more tightly here.

`CC(C)(C)NS(=O)(=O)c1ccc(-c2ncc(C(F)(F)F)c(Nc3cc(C4CC4)n[nH]3)n2)s1` [Compound 162, 5-[4-[(5-cyclopropyl-2H-pyrazol-3-yl)amino]-5-(trifluoromethyl)pyrimidin-2-yl]-N-tert-butyl-thiophene-2-sulfonamide] was tested, and the Ki was 500 to 1000 nM.
